Assay results reported in PubChem BioAssay AID1919015 (Molecular Pharmacology Branch, DTP, NCI, 2023).

System: OVCAR-5 complex spheroids with HUVEC/MSC, viability, % test/control
Assay: Anticancer human tumor OVCAR-5 cell line growth inhibition [AhR];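 note: spheroids exposed to compounds for 7 days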;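 for viability, T/C: 100% = DMSO vehicle control wells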
Conditions: for IC50: curve of first compound; for viability, T/C: stronger effect = lower value
Procedure, shortened: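 Agents were dosed in half-log steps down from roughly clinical Cmax, or from 10 microM where Cmax was unknown, alone and with AhR antagonists. Read-out: percent test/control growth of tumor spheroids containing HUVEC and MSC stromal cells.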

[1] = second compound 0.1 µM, first compound 0.0316 µM
[2] = second compound 0.1 µM, first compound 0.1 µM
[3] = second compound 0.1 µM, first compound 0.316 µM
[4] = second compound 0.1 µM, first compound 1 µM
[5] = second compound 0.1 µM, first compound 3.16 µM
[6] = second compound 0.1 µM, first compound 10 µM
[7] = second compound 0.316 µM, first compound 0.0316 µM
[8] = second compound 0.316 µM, first compound 0.1 µM
[9] = second compound 0.316 µM, first compound 0.316 µM
[10] = second compound 0.316 µM, first compound 1 µM
[11] = second compound 0.316 µM, first compound 3.16 µM
[12] = second compound 0.316 µM, first compound 10 µM
[13] = second compound 1 µM, first compound 0.0316 µM
[14] = second compound 1 µM, first compound 0.1 µM
[15] = second compound 1 µM, first compound 0.316 µM
[16] = second compound 1 µM, first compound 1 µM
[17] = second compound 1 µM, first compound 3.16 µM
[18] = second compound 1 µM, first compound 10 µM
[19] = second compound 3.16 µM, first compound 0.0316 µM
[20] = second compound 3.16 µM, first compound 0.1 µM
[21] = second compound 3.16 µM, first compound 0.316 µM
[22] = second compound 3.16 µM, first compound 1 µM
[23] = second compound 3.16 µM, first compound 3.16 µM
[24] = second compound 3.16 µM, first compound 10 µM
[25] = second compound 10 µM, first compound 0.0316 µM
[26] = second compound 10 µM, first compound 0.1 µM
[27] = second compound 10 µM, first compound 0.316 µM
[28] = second compound 10 µM, first compound 1 µM
[29] = second compound 10 µM, first compound 3.16 µM
[30] = second compound 10 µM, first compound 10 µM

## CC(C)CC(NC(=O)C(Cc1ccccc1)NC(=O)c1cnccn1)B(O)O (stereo not given) + Cc1cncc(-c2nc(NCCc3c[nH]c4ccccc34)c3ncn(C(C)C)c3n2)c1
Second compound 0.1 µM
  IC50: 58.1 nM
Second compound 0.316 µM
  IC50: 57.2 nM
Second compound 1 µM
  IC50: 54.6 nM
Second compound 3.16 µM
  IC50: 41.1 nM
Second compound 10 µM
  IC50: < 0.949 nM
Second compound 0.1 µM, first compound 0.000949 µM
  viability, T/C: 96.8%
Second compound 0.1 µM, first compound 0.003 µM
  viability, T/C: 102%
Second compound 0.1 µM, first compound 0.00949 µM
  viability, T/C: 102%
Second compound 0.1 µM, first compound 0.03 µM
  viability, T/C: 74.7%
Second compound 0.1 µM, first compound 0.0949 µM
  viability, T/C: 32.2%
Second compound 0.1 µM, first compound 0.3 µM
  viability, T/C: 27.2%
Second compound 0.316 µM, first compound 0.000949 µM
  viability, T/C: 96.3%
Second compound 0.316 µM, first compound 0.003 µM
  viability, T/C: 100%
Second compound 0.316 µM, first compound 0.00949 µM
  viability, T/C: 101%
Second compound 0.316 µM, first compound 0.03 µM
  viability, T/C: 72.1%
Second compound 0.316 µM, first compound 0.0949 µM
  viability, T/C: 33.2%
Second compound 0.316 µM, first compound 0.3 µM
  viability, T/C: 23.6%
Second compound 1 µM, first compound 0.000949 µM
  viability, T/C: 96.7%
Second compound 1 µM, first compound 0.003 µM
  viability, T/C: 95%
Second compound 1 µM, first compound 0.00949 µM
  viability, T/C: 96.6%
Second compound 1 µM, first compound 0.03 µM
  viability, T/C: 68.2%
Second compound 1 µM, first compound 0.0949 µM
  viability, T/C: 33.6%
Second compound 1 µM, first compound 0.3 µM
  viability, T/C: 25%
Second compound 3.16 µM, first compound 0.000949 µM
  viability, T/C: 82.9%
Second compound 3.16 µM, first compound 0.003 µM
  viability, T/C: 76.3%
Second compound 3.16 µM, first compound 0.00949 µM
  viability, T/C: 75.9%
Second compound 3.16 µM, first compound 0.03 µM
  viability, T/C: 59.5%
Second compound 3.16 µM, first compound 0.0949 µM
  viability, T/C: 25.6%
Second compound 3.16 µM, first compound 0.3 µM
  viability, T/C: 15.4%
Second compound 10 µM, first compound 0.000949 µM
  viability, T/C: 19.6%
Second compound 10 µM, first compound 0.003 µM
  viability, T/C: 24.7%
Second compound 10 µM, first compound 0.00949 µM
  viability, T/C: 15%
Second compound 10 µM, first compound 0.03 µM
  viability, T/C: 1.7%
Second compound 10 µM, first compound 0.0949 µM
  viability, T/C: 0.78%
Second compound 10 µM, first compound 0.3 µM
  viability, T/C: 0.54%

## COc1cc(Nc2ncc3c(n2)-c2ccc(Cl)cc2C(c2c(F)cccc2OC)=NC3)ccc1C(=O)O + Cc1cncc(-c2nc(NCCc3c[nH]c4ccccc34)c3ncn(C(C)C)c3n2)c1
Second compound 0.1 µM
  IC50: 2650 nM
Second compound 0.316 µM
  IC50: 3040 nM
Second compound 1 µM
  IC50: 2740 nM
Second compound 3.16 µM
  IC50: 875 nM
Second compound 10 µM
  IC50: < 31.6 nM
[1]
  viability, T/C: 88.1%
[2]
  viability, T/C: 83.6%
[3]
  viability, T/C: 63.6%
[4]
  viability, T/C: 58%
[5]
  viability, T/C: 49.2%
[6]
  viability, T/C: 45.6%
[7]
  viability, T/C: 87.3%
[8]
  viability, T/C: 80.9%
[9]
  viability, T/C: 63.3%
[10]
  viability, T/C: 59.9%
[11]
  viability, T/C: 50.2%
[12]
  viability, T/C: 42.5%
[13]
  viability, T/C: 85.5%
[14]
  viability, T/C: 79%
[15]
  viability, T/C: 60.5%
[16]
  viability, T/C: 59.5%
[17]
  viability, T/C: 48.3%
[18]
  viability, T/C: 44.1%
[19]
  viability, T/C: 69.8%
[20]
  viability, T/C: 68.6%
[21]
  viability, T/C: 56.7%
[22]
  viability, T/C: 49.8%
[23]
  viability, T/C: 46.9%
[24]
  viability, T/C: 44%
[25]
  viability, T/C: 9.88%
[26]
  viability, T/C: 9.9%
[27]
  viability, T/C: 8.88%
[28]
  viability, T/C: 9.21%
[29]
  viability, T/C: 8.92%
[30]
  viability, T/C: 12.2%

## O=C(C=Cc1cccc(S(=O)(=O)Nc2ccccc2)c1)NO + Cc1cncc(-c2nc(NCCc3c[nH]c4ccccc34)c3ncn(C(C)C)c3n2)c1
Second compound 0.1 µM
  IC50: 1130 nM
Second compound 0.316 µM
  IC50: 1010 nM
Second compound 1 µM
  IC50: 1130 nM
Second compound 3.16 µM
  IC50: 891 nM
Second compound 10 µM
  IC50: < 31.6 nM
[1]
  viability, T/C: 95.8%
[2]
  viability, T/C: 87.4%
[3]
  viability, T/C: 70.6%
[4]
  viability, T/C: 52.4%
[5]
  viability, T/C: 30.4%
[6]
  viability, T/C: 7.81%
[7]
  viability, T/C: 95.1%
[8]
  viability, T/C: 88.1%
[9]
  viability, T/C: 70.2%
[10]
  viability, T/C: 52.1%
[11]
  viability, T/C: 24.9%
[12]
  viability, T/C: 6.95%
[13]
  viability, T/C: 87.9%
[14]
  viability, T/C: 88.3%
[15]
  viability, T/C: 70%
[16]
  viability, T/C: 55.3%
[17]
  viability, T/C: 25.1%
[18]
  viability, T/C: 6.35%
[19]
  viability, T/C: 79.4%
[20]
  viability, T/C: 75.8%
[21]
  viability, T/C: 66%
[22]
  viability, T/C: 49%
[23]
  viability, T/C: 23.1%
[24]
  viability, T/C: 5.52%
[25]
  viability, T/C: 23.3%
[26]
  viability, T/C: 26.7%
[27]
  viability, T/C: 23.4%
[28]
  viability, T/C: 24.9%
[29]
  viability, T/C: 16.4%
[30]
  viability, T/C: 2.82%
